Laboratory results published in patent US20210309978A1, “POLYNUCLEOTIDE SEQUENCE ENCODING A LOCAL SOURCED NOVEL ESTERASE” (ISTANBUL TEKNIK UNIVERSITESI, priority 2018, published 2021).
Read-outs that look alike come from different tables or passages of the source.

Key:
esterase enzyme [1] = experiment: Effect of solutions (solvents) on enzyme activity; type: biochemical, microflora of Ac1göl (Aci Lake); settings: 10% solution added into the reaction
Description: (§1) 6. […] The final concentration of the enzyme and substrate have been 1 μM and 1 mM respectively and absorbance measurements have been taken at 410 nm. The activity has been calculated by means of the below formula and one unit of activity has been defined as the enzyme amount which produces 1 μmol product in 1 minute.
(§2) Activity (U/L)=[(ΔAbs/t)/(ε*d)]*106*Vt/Vs • ΔAbs=Absorbance change; t=time (minute); ε=extinction coefficient (M−1 cm−1); d=light path (cm); Vt=total reaction volume; Vs=enzyme volume used in reaction.
(§3) Additionally, the effect of different solutions (hexane, chloroform, acetone, dimethyl formamide (DMF), dimethyl sulphoxide (DMSO), 2-propanol, butanol, 1-propanol, ethanol, methanol and glycerol) on the activity and stability of the enzyme have been measured. In the activity tests, 10% solution has been added into the reaction and in the stability tests the enzyme has been incubated for 24 hours in a buffer solution containing 15% and 30% solution.

esterase enzyme [2] = experiment: Effect of solutions (solvents) on enzyme stability (24 hours incubation); type: biochemical, microflora of Ac1göl (Aci Lake); settings: for Effect of solutions on stability, Activity (%) 15% Solution: enzyme incubated 24 hours in buffer containing 15% solution; for Effect of solutions on stability, Activity (%) 30% Solution: enzyme incubated 24 hours in buffer containing 30% solution
Description: as §1, §2, §3

esterase enzyme [3] = experiment: Effect of metals on enzyme activity; type: biochemical, microflora of Ac1göl (Aci Lake); settings: for Metal tolerance, This study: the enzyme of the invention in presence of metal ion
[4] = system: new true lipase isolated through metagenomic approach; settings: literature enzyme in presence of metal ion; cited from earlier work
esterase enzyme [5] = experiment: Effects of inhibitors and detergents on enzyme activity; type: biochemical, microflora of Ac1göl (Aci Lake)
[6] = system: heavy metal-resistant, thermophilic esterase from a Red Sea Brine Pool; settings: literature enzyme in presence of metal ion; cited from earlier work
[7] = system: thermophilic and halophilic esterase from Janibacter sp. R02; settings: literature enzyme in presence of metal ion; cited from earlier work
[8] = system: Salt-Tolerant Esterase from the Deep-Sea Sediment of the South China Sea; settings: literature enzyme in presence of metal ion; cited from earlier work

CCCCCC [Hexane, hexane]
Effect of solutions on activity, Activity (%) (esterase enzyme [1]): 22.6 ± 4.9% | Effect of solutions on stability, Activity (%) 15% Solution (esterase enzyme [2]): 113.6 ± 8.5% | Effect of solutions on stability, Activity (%) 30% Solution (esterase enzyme [2]): 100.2 ± 4.9%

1-propanol
Effect of solutions on activity, Activity (%) (esterase enzyme [1]): 2.6 ± 2.4% | Effect of solutions on stability, Activity (%) 15% Solution (esterase enzyme [2]): 85.7 ± 2.6% | Effect of solutions on stability, Activity (%) 30% Solution (esterase enzyme [2]): 23.3 ± 5.4%

CCO [Ethanol, ethanol]
Effect of solutions on activity, Activity (%) (esterase enzyme [1]): 45.1 ± 0.3% | Effect of solutions on stability, Activity (%) 15% Solution (esterase enzyme [2]): 105.9 ± 4.7% | Effect of solutions on stability, Activity (%) 30% Solution (esterase enzyme [2]): 98.2 ± 0.5%

[Cl-].[Cl-].[Co+2] [CoCl2]
Activity (%) (1 mM metal) (esterase enzyme [3]): 112.7 ± 3.4% | Activity (%) (5 mM metal) (esterase enzyme [3]): 3.6 ± 1.0%

CO [Methanol, methanol]
Effect of solutions on activity, Activity (%) (esterase enzyme [1]): 81.1 ± 1.1% | Effect of solutions on activity, Activity (%) (esterase enzyme [1]; listed as methanol): 81% | Effect of solutions on stability, Activity (%) 15% Solution (esterase enzyme [2]): 108.5 ± 0.2% | Effect of solutions on stability, Activity (%) 30% Solution (esterase enzyme [2]): 99.4 ± 6.6%

[Ag+] [Ag^+]
Metal tolerance, This study (esterase enzyme [3]): 32 | Metal tolerance, Glogauer et al, 2011 [4]: 8

[Cl-].[Cl-].[Mg+2] [MgCl2]
Activity (%) (1 mM metal) (esterase enzyme [3]; 1 mM metal): 130.2 ± 0.6% | Activity (%) (5 mM metal) (esterase enzyme [3]; 5 mM metal): 104.6 ± 3%

O=C(O)CN(CCOCCOCCN(CC(=O)O)CC(=O)O)CC(=O)O [EGTA, ethylene glycol tetraacetic acid]
Activity (%) (1 mM inh.) (esterase enzyme [5]): 100.2 ± 2.1% | Activity (%) (5 mM inh.) (esterase enzyme [5]): 87.6 ± 3.9%

[Cu+2] [Cu^2+]
Metal tolerance, This study (esterase enzyme [3]): 118 | Metal tolerance, Mohamed et al, 2013 [6]: 95 | Metal tolerance, Castilla et al, 2017 [7]: 60 | Metal tolerance, Zhang et al, 2017 [8]: 82

NP-40
Activity (%) (1 mM inh.) (esterase enzyme [5]; 1 mM inh.): 101.9 ± 6.8% | Activity (%) (5 mM inh.) (esterase enzyme [5]; 5 mM inh.): 89.1 ± 1.5%

O=S(=O)([O-])[O-].[Cu+2] [CuSO4]
Activity (%) (1 mM metal) (esterase enzyme [3]; 1 mM metal): 117.5 ± 5% | Activity (%) (5 mM metal) (esterase enzyme [3]; 5 mM metal): 1.4 ± 1.1%

butanol
Effect of solutions on activity, Activity (%) (esterase enzyme [1]): 3.3 ± 3.3% | Effect of solutions on stability, Activity (%) 15% Solution (esterase enzyme [2]): 97.1 ± 3.3% | Effect of solutions on stability, Activity (%) 30% Solution (esterase enzyme [2]): 104.9 ± 2.4%

O=[N+]([O-])[O-].[Ag+] [AgNO3]
Activity (%) (1 mM metal) (esterase enzyme [3]; 1 mM metal): 31.6 ± 6.5% | Activity (%) (5 mM metal) (esterase enzyme [3]; 5 mM metal): 0.0%

[Mn+2] [Mn^2+]
Metal tolerance, This study (esterase enzyme [3]): 130 | Metal tolerance, Glogauer et al, 2011 [4]: 47 | Metal tolerance, Mohamed et al, 2013 [6]: 112 | Metal tolerance, Castilla et al, 2017 [7]: 75 | Metal tolerance, Zhang et al, 2017 [8]: 76

[Ca+2].[Cl-].[Cl-] [CaCl2]
Activity (%) (1 mM metal) (esterase enzyme [3]; 1 mM metal): 130.2 ± 1.7% | Activity (%) (5 mM metal) (esterase enzyme [3]; 5 mM metal): 105.1 ± 1.4%

[Co+2] [Co^2+]
Metal tolerance, This study (esterase enzyme [3]): 113 | Metal tolerance, Glogauer et al, 2011 [4]: 54 | Metal tolerance, Mohamed et al, 2013 [6]: 104 | Metal tolerance, Castilla et al, 2017 [7]: 50 | Metal tolerance, Zhang et al, 2017 [8]: 85

O[C@H](CS)[C@H](O)CS (racemic) [DTT, dithiothreitol]
Activity (%) (1 mM inh.) (esterase enzyme [5]; 1 mM inh.): 36.7 ± 2.4% | Activity (%) (5 mM inh.) (esterase enzyme [5]; 5 mM inh.): 25.1 ± 0.8%

O=S(=O)([O-])[O-].[Zn+2] [ZnSO4]
Activity (%) (1 mM metal) (esterase enzyme [3]; 1 mM metal): 6.1 ± 3.1% | Activity (%) (5 mM metal) (esterase enzyme [3]; 5 mM metal): 1.3 ± 1.2%

[Ni+2] [Ni^2+]
Metal tolerance, This study (esterase enzyme [3]): 110 | Metal tolerance, Glogauer et al, 2011 [4]: 66 | Metal tolerance, Castilla et al, 2017 [7]: 75 | Metal tolerance, Zhang et al, 2017 [8]: 68

Tween-80
Activity (%) (1 mM inh.) (esterase enzyme [5]; 1 mM inh.): 107.2 ± 7.9% | Activity (%) (5 mM inh.) (esterase enzyme [5]; 5 mM inh.): 80.7 ± 2.2%

O=S(=O)(F)Cc1ccccc1 [PMSF, phenylmethanesulfonyl fluoride]
Activity (%) (1 mM inh.) (esterase enzyme [5]; 1 mM inh.): 1.3 ± 0.1% | Activity (%) (5 mM inh.) (esterase enzyme [5]; 5 mM inh.): 0.2%
